Data: patent publication US20220089592A1, “IMIDAZO[1,2-A]PYRIDINYL DERIVATIVES AS IRAK4 INHIBITORS” (priority 2019, published 2022)

Assays:
IRAK4 [1] = molecular target: T1, IRAK4 (Homo sapiens, UniProt Q9NWZ3); assay: 2-hour 10 μM ATP Biochemical Assay (MesoScale Detection format; IRAK4 phosphorylation of biotin labeled IRAK1 activation loop peptide); conditions: IRAK4 MSD BIOCHEMICAL (10 μM ATP) IC50 (μM), 1 nM IRAK4, 2 hours
T1 sequence (Q9NWZ3 1-460): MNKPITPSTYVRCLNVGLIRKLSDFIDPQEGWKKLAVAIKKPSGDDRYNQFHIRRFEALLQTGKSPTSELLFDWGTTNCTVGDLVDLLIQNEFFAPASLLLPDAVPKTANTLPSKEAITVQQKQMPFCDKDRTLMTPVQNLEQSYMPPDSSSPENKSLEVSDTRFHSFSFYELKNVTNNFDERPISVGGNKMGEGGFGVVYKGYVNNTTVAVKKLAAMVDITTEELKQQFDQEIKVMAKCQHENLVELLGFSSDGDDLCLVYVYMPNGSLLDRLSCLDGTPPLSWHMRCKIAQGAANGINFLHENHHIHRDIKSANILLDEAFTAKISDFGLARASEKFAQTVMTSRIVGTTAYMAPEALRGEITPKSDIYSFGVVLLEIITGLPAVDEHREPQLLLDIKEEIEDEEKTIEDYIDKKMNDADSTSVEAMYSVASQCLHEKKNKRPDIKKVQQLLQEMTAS
Method in brief: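 Kinase reaction run 2 h at 10 μM ATP with biotinylated IRAK1 activation-loop peptide, quenched with EDTA. Phospho-peptide captured on streptavidin MSD plates and detected with anti-phosphothreonine rabbit antibody plus Sulfo-Tag anti-rabbit electrochemiluminescence.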

IRAK4 [2] = molecular target: T1, IRAK4; assay: 2-hour 1 mM ATP IRAK4 Biochemical assay (as above, but with 100 pM IRAK4 and 1 mM ATP); conditions: IRAK4 MSD BIOCHEMICAL (1 mM ATP) IC50 (μM), 100 pM IRAK4, 2 hours
Method in brief: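 Run with 100 pM IRAK4 and 1 mM ATP for 2 hours, quenched with EDTA pH 8. Phosphorylated biotinylated peptide captured on streptavidin MSD plates and detected with anti-phosphothreonine antibody plus Sulfo-Tag secondary by electrochemiluminescence.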

## CCOc1nc2nc(CC)cn2cc1NC(=O)c1cccc(C(F)F)n1 [Example 74, 6-(difluoromethyl)-N-(7-ethoxy-2-ethylimidazo[1,2-a]pyrimidin-6-yl)picolinamide]
IRAK4 [1]
  IC50: 0.007 µM
IRAK4 [2]
  IC50: 0.018 µM

## CCOc1cc2nc(C3CCOCC3)cn2cc1NC(=O)c1cccc(OC(C)C)n1 [Example 220, N-(7-ethoxy-2-(tetrahydro-2H-pyran-4-yl)imidazo[1,2-a]pyridin-6-yl)-6-isopropoxypicolinamide]
IRAK4 [1]
  IC50: 0.004 µM
IRAK4 [2]
  IC50: 0.02 µM

## CCOc1cc2nc(C3CCOCC3)cn2cc1NC(=O)c1scc2c1OCCO2 [Example 221, N-(7-ethoxy-2-(tetrahydro-2H-pyran-4-yl)imidazo[1,2-a]pyridin-6-yl)-2,3-dihydrothieno[3,4-b][1,4]dioxine-5-carboxamide]
IRAK4 [1]
  IC50: 0.001 µM
IRAK4 [2]
  IC50: 0.011 µM

## CCOc1cc2nc(C3CN(C4COC4)C3)cn2cc1NC(=O)c1cccc(C(F)F)n1 [Example 79, 6-(difluoromethyl)-N-(7-ethoxy-2-(1-(oxetan-3-yl)azetidin-3-yl)imidazo[1,2-a]pyridin-6-yl)picolinamide]
IRAK4 [1]
  IC50: 0.001 µM
IRAK4 [2]
  IC50: 0.001 µM

## CCOc1cc2nc(C3CCOCC3)cn2cc1NC(=O)c1ccn(C(C)C)n1 [Example 206, N-(7-ethoxy-2-(tetrahydro-2H-pyran-4-yl)imidazo[1,2-a]pyridin-6-yl)-1-isopropyl-1H-pyrazole-3-carboxamide]
IRAK4 [1]
  IC50: 0.005 µM
IRAK4 [2]
  IC50: 0.019 µM

## COCCOc1cc2nc(C3CC3)cn2cc1NC(=O)c1cccc(C(F)F)n1 [Example 101, N-(2-cyclopropyl-7-(2-methoxyethoxy)imidazo[1,2-a]pyridin-6-yl)-6-(difluoromethyl)picolinamide]
IRAK4 [1]
  IC50: 0.006 µM
IRAK4 [2]
  IC50: 0.029 µM

## CCOc1cc2nc(C[C@H]3CCOC3)cn2cc1NC(=O)c1cccc(C(F)F)n1 (single isomer, unassigned) [Example 15]
IRAK4 [1]
  IC50: 0.001 µM
IRAK4 [2]
  IC50: 0.001 µM

## CCOc1cc2nc(C34CC(C)(C3)C4)cn2cc1NC(=O)c1cccc(C(F)(F)F)n1 [Example 520, N-(7-ethoxy-2-(3-methylbicyclo[1.1.1]pentan-1-yl)imidazo[1,2-a]pyridin-6-yl)-6-(trifluoromethyl)picolinamide 2,2,2-trifluoroacetate]
IRAK4 [1]
  IC50: 0.001 µM
IRAK4 [2]
  IC50: 0.005 µM

## CCOc1nc2nc(CCCOC)cn2cc1NC(=O)c1cccc(C(F)F)n1 [Example 242, 6-(difluoromethyl)-N-(7-ethoxy-2-(3-methoxypropyl)imidazo[1,2-a]pyrimidin-6-yl)picolinamide]
IRAK4 [1]
  IC50: 0.001 µM
IRAK4 [2]
  IC50: 0.003 µM

## CCOc1cc2nc(CC3CCOCC3)cn2cc1NC(=O)c1cccc(C(F)F)n1 [Example 151, 6-(difluoromethyl)-N-(7-ethoxy-2-((tetrahydro-2H-pyran-4-yl)methyl)imidazo[1,2-a]pyridin-6-yl)picolinamide]
IRAK4 [1]
  IC50: 0.001 µM
IRAK4 [2]
  IC50: 0.002 µM

## CCOc1cc2nc(CC3CCOC3)cn2cc1NC(=O)c1coc(-c2cnn(C)c2)n1 (centres unmarked) [Example 22, N-(7-ethoxy-2-((tetrahydrofuran-3-yl)methyl)imidazo[1,2-a]pyridin-6-yl)-2-(1-methyl-1H-pyrazol-4-yl)oxazole-4-carboxamide]
IRAK4 [1]
  IC50: 0.001 µM
IRAK4 [2]
  IC50: 0.002 µM

## O=C(Nc1cn2cc(C3CCOCC3)nc2cc1OC1COC1)c1cccc(C(F)F)n1 [Example 182, 6-(difluoromethyl)-N-(7-(oxetan-3-yloxy)-2-(tetrahydro-2H-pyran-4-yl)imidazo[1,2-a]pyridin-6-yl)picolinamide]
IRAK4 [1]
  IC50: 0.001 µM
IRAK4 [2]
  IC50: 0.004 µM

## CCOc1cc2nc(C(C)C3CCOC3)cn2cc1NC(=O)c1cccc(C(F)(F)F)n1 (single isomer, unassigned) [Example 139]
IRAK4 [1]
  IC50: 0.001 µM
IRAK4 [2]
  IC50: 0.001 µM

## CCOc1cc2nc(C3(F)CC3)cn2cc1NC(=O)c1cccc(C(F)F)n1 [Example 111, 6-(difluoromethyl)-N-(7-ethoxy-2-(1-fluorocyclopropyl)imidazo[1,2-a]pyridin-6-yl)picolinamide]
IRAK4 [1]
  IC50: 0.002 µM
IRAK4 [2]
  IC50: 0.003 µM

## CCOc1cc2nc(CCC(F)F)cn2cc1NC(=O)c1cccc(C(F)F)n1 [Example 110, 6-(difluoromethyl)-N-(2-(3,3-difluoropropyl)-7-ethoxyimidazo[1,2-a]pyridin-6-yl)picolinamide]
IRAK4 [1]
  IC50: 0.001 µM
IRAK4 [2]
  IC50: 0.001 µM

## CCOc1cc2nc(Cc3ccn(C)n3)cn2cc1NC(=O)c1cccc(C(F)F)n1 [Example 84, 6-(difluoromethyl)-N-(7-ethoxy-2-((1-methyl-1H-pyrazol-3-yl)methyl)imidazo[1,2-a]pyridin-6-yl)picolinamide]
IRAK4 [1]
  IC50: 0.082 µM
IRAK4 [2]
  IC50: 0.015 µM

## CCOc1cc2nc([C@H](F)[C@@H]3CCOC3)cn2cc1NC(=O)c1cccc(C(F)(F)F)n1 (single isomer, unassigned) [Example 143]
IRAK4 [1]
  IC50: 0.001 µM
IRAK4 [2]
  IC50: 0.002 µM

## CC1CCC(Oc2cc3nc(C4CCOCC4)cn3cc2NC(=O)c2cccc(C(F)F)n2)C1 (centres unmarked) [Example 178, 6-(difluoromethyl)-N-(7-((3-methylcyclopentyl)oxy)-2-(tetrahydro-2H-pyran-4-yl)imidazo[1,2-a]pyridin-6-yl)picolinamide]
IRAK4 [1]
  IC50: 0.001 µM
IRAK4 [2]
  IC50: 0.001 µM

## CCOc1cc2nc(C3CCOCC3)cn2cc1NC(=O)c1ccn(CC)n1 [Example 205, N-(7-ethoxy-2-(tetrahydro-2H-pyran-4-yl)imidazo[1,2-a]pyridin-6-yl)-1-ethyl-1H-pyrazole-3-carboxamide]
IRAK4 [1]
  IC50: 0.003 µM
IRAK4 [2]
  IC50: 0.012 µM

## CC1(COc2cc3nc(C4CCOCC4)cn3cc2NC(=O)c2cccc(C(F)(F)F)n2)COC1 [Example 166, N-(7-((3-methyloxetan-3-yl)methoxy)-2-(tetrahydro-2H-pyran-4-yl)imidazo[1,2-a]pyridin-6-yl)-6-(trifluoromethyl)picolinamide]
IRAK4 [1]
  IC50: 0.002 µM
IRAK4 [2]
  IC50: 0.009 µM

## CCOc1cc2nc(C(C)(C)C#N)cn2cc1NC(=O)c1csc(C)n1 [Example 241, N-(2-(2-cyanopropan-2-yl)-7-ethoxyimidazo[1,2-a]pyridin-6-yl)-2-methylthiazole-4-carboxamide]
IRAK4 [1]
  IC50: 0.01 µM
IRAK4 [2]
  IC50: 0.041 µM

## CCOc1cc2nc(C34CC(OC)(C3)C4)cn2cc1NC(=O)c1cccc(C(F)F)n1 [Example 153, 6-(difluoromethyl)-N-(7-ethoxy-2-(3-methoxybicyclo[1.1.1]pentan-1-yl)imidazo[1,2-a]pyridin-6-yl)picolinamide]
IRAK4 [1]
  IC50: 0.001 µM
IRAK4 [2]
  IC50: 0.001 µM

## CCOc1cc2nc(C3CCOCC3)cn2cc1NC(=O)c1cccc(C(C)(F)F)n1 [Example 227, 6-(1,1-difluoroethyl)-N-(7-ethoxy-2-(tetrahydro-2H-pyran-4-yl)imidazo[1,2-a]pyridin-6-yl)picolinamide]
IRAK4 [1]
  IC50: 0.001 µM
IRAK4 [2]
  IC50: 0.001 µM

## CCOc1cc2nc(C(F)F)cn2cc1NC(=O)c1cccc(C(F)(F)F)n1 [Example 57, N-(2-(difluoromethyl)-7-ethoxyimidazo[1,2-a]pyridin-6-yl)-6-(trifluoromethyl)picolinamide]
IRAK4 [1]
  IC50: 0.003 µM
IRAK4 [2]
  IC50: 0.008 µM

## CC1(COc2cc3nc(C4CC4)cn3cc2NC(=O)c2cccc(C(F)F)n2)COC1 [Example 50, N-(2-cyclopropyl-7-((3-methyloxetan-3-yl)methoxy)imidazo[1,2-a]pyridin-6-yl)-6-(difluoromethyl)picolinamide]
IRAK4 [1]
  IC50: 0.004 µM
IRAK4 [2]
  IC50: 0.014 µM

## CCOc1cc2nc(C(C)(F)F)cn2cc1NC(=O)c1cccc(C(F)F)n1 [Example 109, N-(2-(1,1-difluoroethyl)-7-ethoxyimidazo[1,2-a]pyridin-6-yl)-6-(difluoromethyl)picolinamide]
IRAK4 [1]
  IC50: 0.002 µM
IRAK4 [2]
  IC50: 0.003 µM

## CCOc1cc2nc(C(C)(C)C#N)cn2cc1NC(=O)c1cccc(C(F)F)n1 [Example 152, N-(2-(2-cyanopropan-2-yl)-7-ethoxyimidazo[1,2-a]pyridin-6-yl)-6-(difluoromethyl)picolinamide]
IRAK4 [1]
  IC50: 0.004 µM
IRAK4 [2]
  IC50: 0.004 µM

## CCOc1cc2nc(CC3CCCO3)cn2cc1NC(=O)c1cccc(C(F)(F)F)n1 (centres unmarked) [Example 60, N-(7-ethoxy-2-((tetrahydrofuran-2-yl)methyl)imidazo[1,2-a]pyridin-6-yl)-6-(trifluoromethyl)picolinamide]
IRAK4 [1]
  IC50: 0.002 µM
IRAK4 [2]
  IC50: 0.006 µM

## CCOc1cc2nc(CCCOC)cn2cc1NC(=O)c1cccc(OC)n1 [Example 524, N-(7-ethoxy-2-(3-methoxypropyl)imidazo[1,2-a]pyridin-6-yl)-6-methoxypicolinamide]
IRAK4 [1]
  IC50: 0.004 µM
IRAK4 [2]
  IC50: 0.015 µM

## CCOc1cc2nc(C3CC3)cn2cc1NC(=O)c1cccc2c1OCC2 [Example 119, N-(2-cyclopropyl-7-ethoxyimidazo[1,2-a]pyridin-6-yl)-2,3-dihydrobenzofuran-7-carboxamide]
IRAK4 [1]
  IC50: 0.009 µM
IRAK4 [2]
  IC50: 0.021 µM

## CCOc1cc2nc([C@]34CCOC[C@H]3C4)cn2cc1NC(=O)c1cccc(C(F)F)n1 (relative stereo) [Example 249, N-(2-((1S*,6R*)-3-oxabicyclo[4.1.0]heptan-6-yl)-7-ethoxyimidazo[1,2-a]pyridin-6-yl)-6-(difluoromethyl)picolinamide]
IRAK4 [1]
  IC50: 0.001 µM
IRAK4 [2]
  IC50: 0.001 µM
